Laboratory results published in paper PMC5909342, “Increasing the bioactive space of peptide macrocycles by thioamide substitution” (Chemical Science, 2018).
Read-outs that look alike come from different tables or passages of the source.

What was measured:
[1] = target: T1, α5β1 integrin (Homo sapiens, UniProt P05556+P08648); assay: Competitive solid-phase integrin binding assay (ELISA), fibronectin-α5β1; details: purified integrin, n = 5 ± SEM, read-out: In vitro IC50 α5β1
T1 construct: purchased Millipore
Experimental: (§1) The initial structure was obtained by following a simulated annealing protocol. […] For the structure of 7-11 (including 9a-9d) explicit solvent box of H2O was used with periodic boundary conditions. A 2 ns restrained molecular dynamics run was then performed. The average conformation over the dynamics run was considered to be the final structure. Competitive solid-phase integrin binding assay The activity of peptide as integrin antagonist was assessed using solid phase integrin binding assay. Following buffers were prepared freshly. […] 96-well plate reader at 492 nm. […] Binding was visualized using TMB substrate. […] S7

[2] = system: αvβ3, αvβ5 and α5β1 expressing U-87 MG glioblastoma cells; assay: Competitive cell-adhesion inhibition assay to vitronectin, U-87 MG; assay type: cell-based, human; details: n = 5 ± SEM, read-out: In cellulo IC50 U-87 MG
Experimental: To validate our in vitro data and determine the efficacy of the peptides against the pro-angiogenic integrins in a complex cellular milieu, we subjected the peptides to a competitive cell-adhesion assay (Table 1) utilizing MDA-MB-231 human breast cancer cells expressing αvβ5 integrins, and U-87 MG human glioblastoma cells expressing αvβ3, αvβ5 and α5β1 integrins.[27] […]
(§2) Cell adhesion inhibition assay […]
(§3) incubated with 0.5% crystal violet for 15 min. Cells were then washed thoroughly with PBS buffer to remove excess of crystal violet. Finally dye was eluted out and dissolved using DMSO and quantification was done at 570 nm. […]
(§4) was dispensed and 5% FBS containing media was added. […]

[3] = system: αvβ5 expressing MDA-MB-231 breast cancer cells; assay: Competitive cell-adhesion inhibition assay to vitronectin, MDA-MB-231; assay type: cell-based, human; details: n = 5 ± SEM, read-out: In cellulo IC50 MDA-MB-231
Experimental: To validate our in vitro data and determine the efficacy of the peptides against the pro-angiogenic integrins in a complex cellular milieu, we subjected the peptides to a competitive cell-adhesion assay (Table 1) utilizing MDA-MB-231 human breast cancer cells expressing αvβ5 integrins, and U-87 MG human glioblastoma cells expressing αvβ3, αvβ5 and α5β1 integrins.[27] […] On the other hand, we observed a remarkable correlation between the in vitro affinity of the thioamidated peptides against the purified integrins and their efficacy in cellulo (αvβ5 with MDA-MB-231, and αvβ3 and αvβ5 with U-87 MG). […]
as §2, §3, §4

[4] = target: T2, αIIbβ3 integrin (Homo sapiens, UniProt P05106+P08514); assay: Competitive solid-phase integrin binding assay (ELISA), fibrinogen-αIIbβ3; details: purified integrin, n = 5 ± SEM, read-out: In vitro IC50 αIIbβ3
T2 construct: purchased Millipore
Experimental: The inhibitory potency of the peptides to block the association between the extracellular matrix and the integrins overexpressed on cell-surfaces was determined using an in vitro competitive solid phase binding assay.[25] We assessed the affinity of these peptides against the pro-angiogenic αvβ3, αvβ5 and α5β1 integrins, and their selectivity against their αIIbβ3 integrin, which plays an important role in platelet aggregation (Table 1).[26]
integrin was incubated for 1h at room temperature. After washing 1:250 diluted CD41b
antibody was incubated for 1h at room temperature. Anti-mouse IgG-peroxidase antibody
was used as secondary antibody. Binding was visualized using TMB substrate. […]

[5] = target: T3, αvβ3 integrin (Homo sapiens, UniProt P05106+P06756); assay: Competitive solid-phase integrin binding assay (ELISA), vitronectin-αvβ3
T3 construct: purchased Millipore
Experimental: as §1, with “Post-blocking and washing peptides were mixed with biotinylated vitronectin and this mixure” for “Binding”, “then incubated with coated plates for 2h at room temperature.” for “visualized using TMB substrate.”, “After washing S6” for “S7”

[6] = target: T4, αvβ5 integrin (Homo sapiens, UniProt P06756+P18084); assay: Competitive solid-phase integrin binding assay (ELISA), vitronectin-αvβ5; details: purified integrin, n = 5 ± SEM, read-out: In vitro IC50 αvβ5
T4 construct: purchased Millipore
Experimental: as §1, with “Post-blocking and washing peptides were mixed with biotinylated vitronectin and this mixure” for “Binding”, “then incubated with coated plates for 2h at room temperature.” for “visualized using TMB substrate.”, “After washing S6” for “S7”

[7] = Ex vivo serum stability assay; details: human serum ex vivo
[8] = competitive ELISA, purified integrin, n = 5 ± SEM, read-out: In vitro IC50 αvβ3
[9] = from experimental IC50, read-out: pIC50 against αvβ3, Table S22 (converted)

Row | Compound | IC50 [1] | IC50 [2] | IC50 [3] | IC50 [4] | IC50 [5, 8] | IC50 [6] | IC50 [5, 9] | Fraction of peptide intact at 72 h [7] | Fold difference in αvβ3 affinity ([5]; 9b versus 7 (differ only in chirality of Phe)) | Fold enhancement of affinity and efficacy in comparison to 9 ([5]; 9b versus 9, pro-angiogenic integrins)
1 | CC(C)[C@@H]1NC(=S)[C@@H](Cc2ccccc2)NC(=O)[C@H](CC(=O)O)NC(=O)CNC(=O)[C@H](CCCNC(=N)N)NC1=O [Compound 7] | 1.3 ± 0.6 nM | 326 ± 97 nM | 4 ± 2 nM | > 10000 nM | 372 ± 52 nM | 0.7 ± 0.2 nM |  |  |  | 
2 | CC(C)[C@@H]1NC(=O)[C@@H](Cc2ccccc2)NC(=O)[C@H](CC(=O)O)NC(=O)CNC(=S)[C@H](CCCNC(=N)N)NC1=O [Compound 9] | 53 ± 42 nM | > 100000 nM | > 100000 nM | > 10000 nM | > 100000 nM | > 10000 nM | > 100000 nM |  |  | 
3 | CC(C)[C@@H]1NC(=O)[C@H](Cc2ccccc2)NC(=O)[C@@H](CC(=O)O)NC(=O)CNC(=O)[C@H](CCCNC(=N)N)NC1=S [Compound 9a] |  | 40 ± 28 nM | 11 ± 9 nM |  |  |  |  |  |  | 
4 | CC(C)[C@@H]1NC(=S)[C@H](Cc2ccccc2)NC(=O)[C@H](CC(=O)O)NC(=O)CNC(=O)[C@H](CCCNC(=N)N)NC1=O [Compound 9b] | 2 ± 0.4 nM | 1.6 ± 0.6 nM | 1 ± 0.1 nM | > 100000 nM | 0.2 ± 0.1 nM | 1.6 ± 0.3 nM | 0.2 nM | 1/4 | > 10^3 fold | ~10^5 fold
5 | CC(C)[C@@H]1NC(=O)[C@H](Cc2ccccc2)NC(=S)[C@H](CC(=O)O)NC(=O)CNC(=O)[C@@H](CCCNC(=N)N)NC1=O [Compound 9c] | 461 ± 246 nM | > 100000 nM | > 100000 nM | > 100000 nM | > 100000 nM | > 10000 nM |  |  |  | 
6 | CC(C)[C@H]1NC(=O)[C@H](Cc2ccccc2)NC(=O)[C@H](CC(=O)O)NC(=S)CNC(=O)[C@H](CCCNC(=N)N)NC1=O [Compound 9d] | 104 ± 95 nM | > 100000 nM | > 100000 nM | > 100000 nM | 584 ± 504 nM | > 10000 nM |  |  |  | 
7 | CC(C)[C@@H]1NC(=O)[C@@H](Cc2ccccc2)NC(=O)[C@H](CC(=O)O)NC(=S)CNC(=O)[C@H](CCCNC(=N)N)NC1=O [Compound 10] | > 100000 nM | > 100000 nM | > 100000 nM | > 100000 nM | 252 ± 200 nM | > 100000 nM |  |  |  | 
8 | CC(C)[C@@H]1NC(=O)[C@@H](Cc2ccccc2)NC(=S)[C@H](CC(=O)O)NC(=O)CNC(=O)[C@H](CCCNC(=N)N)NC1=O [Compound 11] | 62 ± 45 nM | 96 ± 77 nM | 4.2 ± 4 nM | > 100000 nM | 72 ± 63 nM | 1.3 ± 1 nM |  | 1/4 |  | 
9 | CC(C)[C@@H]1NC(=O)[C@H](Cc2ccccc2)NC(=O)[C@H](CC(=O)O)NC(=O)CNC(=O)[C@H](CCCNC(=N)N)NC1=O [Compound 12, cyclo(RGDFV)] |  | > 100000 nM | > 100000 nM |  |  |  |  |  |  | 
